Experimental data from ChEMBL document CHEMBL1201862, “PubChem BioAssay data set” (2004).
Calls of active or inactive are those of the source.

Tests used:
INS1 = assay: INS-1E survival protection against cytokine death – cell-based, luminescence, retest, dose response (AID 449756); type: functional; conditions: Rattus norvegicus;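 also: cell death triggered by IL-1 beta plus TNF-alpha plus IFN-gamma mixture; protective hits raise ATP signal compared with cytokine alone wells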
[1] = target: NACHT, LRR and PYD domains-containing protein 3 (Homo sapiens, UniProt Q96P20); assay: NALP3 inhibitors in yeast, dose response, luminescent (AID 488799); type: functional
NACHT, LRR and PYD domains-containing protein 3, sequence (Q96P20 whole entry, the tested form may be a part): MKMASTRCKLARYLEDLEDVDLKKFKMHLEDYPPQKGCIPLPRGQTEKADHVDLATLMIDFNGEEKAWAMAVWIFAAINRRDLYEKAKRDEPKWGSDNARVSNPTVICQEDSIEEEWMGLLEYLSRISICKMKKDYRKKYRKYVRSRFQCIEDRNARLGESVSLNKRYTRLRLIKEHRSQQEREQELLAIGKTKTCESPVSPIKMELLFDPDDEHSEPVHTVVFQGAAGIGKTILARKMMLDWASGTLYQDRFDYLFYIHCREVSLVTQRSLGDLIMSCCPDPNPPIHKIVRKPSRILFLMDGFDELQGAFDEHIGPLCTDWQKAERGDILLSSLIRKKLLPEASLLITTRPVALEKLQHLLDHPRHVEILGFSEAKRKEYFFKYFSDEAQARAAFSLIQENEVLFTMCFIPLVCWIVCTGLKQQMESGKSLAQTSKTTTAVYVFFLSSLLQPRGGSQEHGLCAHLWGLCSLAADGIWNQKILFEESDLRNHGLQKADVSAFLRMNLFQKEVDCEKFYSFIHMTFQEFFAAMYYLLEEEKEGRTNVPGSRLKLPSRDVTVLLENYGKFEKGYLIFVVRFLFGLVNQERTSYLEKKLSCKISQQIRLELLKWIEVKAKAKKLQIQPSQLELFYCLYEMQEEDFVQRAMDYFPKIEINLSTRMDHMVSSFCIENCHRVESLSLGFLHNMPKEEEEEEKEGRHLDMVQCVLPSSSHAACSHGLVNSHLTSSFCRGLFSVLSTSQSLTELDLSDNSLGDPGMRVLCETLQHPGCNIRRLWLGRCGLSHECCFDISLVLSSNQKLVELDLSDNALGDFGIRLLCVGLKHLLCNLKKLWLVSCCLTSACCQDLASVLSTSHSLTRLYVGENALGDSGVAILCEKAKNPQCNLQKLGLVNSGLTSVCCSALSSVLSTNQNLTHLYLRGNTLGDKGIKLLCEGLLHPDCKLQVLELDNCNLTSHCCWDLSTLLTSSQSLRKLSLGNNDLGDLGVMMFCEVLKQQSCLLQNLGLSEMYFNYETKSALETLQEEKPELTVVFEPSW

[2] = tested on: Streptococcus sp. 'group A'; assay: Streptococcus pyogenes SK(-)GAS viability under kanamycin – luminescence, BacTiterGlo, confirmation, counter-screen for streptokinase expression inhibitor project, dose response (AID 1900); type: functional, organism-based
Exodeoxyribonuclease V = target: T1, Exodeoxyribonuclease V (Escherichia coli (strain K12), UniProt P04993+P07648+P08394); assay: RecBCD inhibition via phage-restricted bacterial growth – absorbance, V66 E. coli, mutant T4 phage, counter-screen for AddAB inhibitor project, dose response (AID 492957); type: functional, cell-based, Escherichia coli str. K-12 substr. MG1655
T1 sequence (P04993 whole entry): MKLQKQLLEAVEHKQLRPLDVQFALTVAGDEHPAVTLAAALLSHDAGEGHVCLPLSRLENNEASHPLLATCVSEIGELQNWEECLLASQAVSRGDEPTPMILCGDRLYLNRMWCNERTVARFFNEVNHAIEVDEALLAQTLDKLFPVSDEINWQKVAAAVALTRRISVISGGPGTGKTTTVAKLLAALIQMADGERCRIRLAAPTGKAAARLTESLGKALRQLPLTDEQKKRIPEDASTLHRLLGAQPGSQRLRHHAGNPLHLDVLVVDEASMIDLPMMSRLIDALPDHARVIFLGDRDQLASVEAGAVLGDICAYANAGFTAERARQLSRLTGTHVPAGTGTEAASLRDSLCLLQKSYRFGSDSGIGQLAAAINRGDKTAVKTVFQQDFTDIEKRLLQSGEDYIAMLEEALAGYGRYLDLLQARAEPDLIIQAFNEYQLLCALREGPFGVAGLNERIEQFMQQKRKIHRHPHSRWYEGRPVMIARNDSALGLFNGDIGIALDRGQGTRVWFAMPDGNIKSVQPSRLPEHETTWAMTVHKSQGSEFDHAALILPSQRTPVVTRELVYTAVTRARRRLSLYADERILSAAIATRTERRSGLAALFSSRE
T1 sequence (P07648 whole entry): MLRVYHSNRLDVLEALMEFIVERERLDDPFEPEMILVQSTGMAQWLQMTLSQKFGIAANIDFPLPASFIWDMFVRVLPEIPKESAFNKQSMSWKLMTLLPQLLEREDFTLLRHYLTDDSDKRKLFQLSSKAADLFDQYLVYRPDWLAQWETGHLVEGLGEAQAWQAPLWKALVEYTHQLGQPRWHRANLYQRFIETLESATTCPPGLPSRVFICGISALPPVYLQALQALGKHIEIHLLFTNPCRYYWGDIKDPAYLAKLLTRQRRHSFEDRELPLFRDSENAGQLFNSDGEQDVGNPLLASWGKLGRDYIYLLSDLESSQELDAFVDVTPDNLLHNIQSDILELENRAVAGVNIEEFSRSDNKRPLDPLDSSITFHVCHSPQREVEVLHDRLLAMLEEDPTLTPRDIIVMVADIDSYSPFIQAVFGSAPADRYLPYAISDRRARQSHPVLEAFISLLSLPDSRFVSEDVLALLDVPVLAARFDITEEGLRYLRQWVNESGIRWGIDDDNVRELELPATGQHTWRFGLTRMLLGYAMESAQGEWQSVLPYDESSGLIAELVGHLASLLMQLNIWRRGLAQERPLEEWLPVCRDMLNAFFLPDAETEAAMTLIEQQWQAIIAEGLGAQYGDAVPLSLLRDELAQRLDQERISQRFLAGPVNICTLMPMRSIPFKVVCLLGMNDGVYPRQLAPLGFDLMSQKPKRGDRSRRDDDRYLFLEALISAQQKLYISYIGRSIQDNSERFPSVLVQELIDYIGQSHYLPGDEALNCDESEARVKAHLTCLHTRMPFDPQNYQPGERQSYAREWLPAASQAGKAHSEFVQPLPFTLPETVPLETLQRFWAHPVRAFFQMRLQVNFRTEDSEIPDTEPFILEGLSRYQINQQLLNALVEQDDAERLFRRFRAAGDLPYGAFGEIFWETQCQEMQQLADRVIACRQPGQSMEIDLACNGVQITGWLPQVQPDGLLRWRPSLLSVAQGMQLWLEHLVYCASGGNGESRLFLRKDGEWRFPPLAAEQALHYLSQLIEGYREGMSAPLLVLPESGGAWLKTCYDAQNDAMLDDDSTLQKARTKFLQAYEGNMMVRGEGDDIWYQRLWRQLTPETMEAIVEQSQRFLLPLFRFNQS
T1 sequence (P08394 whole entry): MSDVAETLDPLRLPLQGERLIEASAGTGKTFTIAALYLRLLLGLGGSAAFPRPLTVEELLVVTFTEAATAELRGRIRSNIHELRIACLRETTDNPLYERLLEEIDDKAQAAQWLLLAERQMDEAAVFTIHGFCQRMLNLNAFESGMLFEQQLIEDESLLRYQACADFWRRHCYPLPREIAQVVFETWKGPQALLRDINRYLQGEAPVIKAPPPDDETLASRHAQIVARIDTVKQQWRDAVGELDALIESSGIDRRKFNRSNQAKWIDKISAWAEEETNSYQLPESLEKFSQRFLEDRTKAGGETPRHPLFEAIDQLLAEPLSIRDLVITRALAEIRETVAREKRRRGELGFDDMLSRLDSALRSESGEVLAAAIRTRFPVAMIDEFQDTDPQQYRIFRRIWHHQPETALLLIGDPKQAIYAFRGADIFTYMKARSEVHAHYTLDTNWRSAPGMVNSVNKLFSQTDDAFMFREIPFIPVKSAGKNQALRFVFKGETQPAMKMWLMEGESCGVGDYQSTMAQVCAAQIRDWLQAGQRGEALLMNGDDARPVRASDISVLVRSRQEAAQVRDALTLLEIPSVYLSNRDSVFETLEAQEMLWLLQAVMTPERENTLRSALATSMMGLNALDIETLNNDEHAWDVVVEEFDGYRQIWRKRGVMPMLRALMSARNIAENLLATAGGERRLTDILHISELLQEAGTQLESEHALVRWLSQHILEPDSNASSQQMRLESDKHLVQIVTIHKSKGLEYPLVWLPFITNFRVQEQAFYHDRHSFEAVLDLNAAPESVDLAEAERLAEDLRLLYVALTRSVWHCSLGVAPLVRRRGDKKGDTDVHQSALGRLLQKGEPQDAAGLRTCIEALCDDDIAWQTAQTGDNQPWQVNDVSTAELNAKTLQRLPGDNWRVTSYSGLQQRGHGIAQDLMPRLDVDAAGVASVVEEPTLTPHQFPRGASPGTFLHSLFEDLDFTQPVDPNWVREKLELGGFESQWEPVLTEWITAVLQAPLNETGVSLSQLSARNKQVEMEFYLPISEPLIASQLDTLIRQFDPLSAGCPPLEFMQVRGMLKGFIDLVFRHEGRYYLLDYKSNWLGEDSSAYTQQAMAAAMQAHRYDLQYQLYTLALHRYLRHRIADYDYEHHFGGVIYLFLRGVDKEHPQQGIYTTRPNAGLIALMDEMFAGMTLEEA

| SMILES | AC50 (INS1) | IC50 [1] | EC50 [2] | IC50 (Exodeoxyribonuclease V) |
| --- | --- | --- | --- | --- |
| COc1ccc(CNC(=O)c2c(C)oc3c2C(=O)c2ccccc2C3=O)cc1 | 2.8 µM (active) | 9.7 µM (active) | 0.737 µM (active) | – |
| CCSc1nsc(NC(=O)Nc2cccc(F)c2)n1 | – | 1.97 µM (active) | 9.91 µM (active) | > 119 µM (inactive) |
| O=[N+]([O-])c1ccc(/C=N/n2cnc3ccccc32)s1 | 2.6 µM (active) | – | – | > 119 µM (inactive) |
